# Where two headings read alike, the source gives them in different places.
# What was measured:
# [1] = test system: male ddY mice; experiment: Rotarod performance test-2; assay type: in vivo; conditions: for Time of Fall: mice, oral at the ED50 dose of the 6 Hz model, 25 minutes after administration; for Ratio Relative to the Control Compound: time of fall relative to control compound
# Description: Rotarod Performance Test-2
# (§1) A rotarod (MK-660C from Muromachi Kikai Co., Ltd.) was used for the measurement. The rod (bar) was controlled to be gradually accelerated from its stationary state to a speed of 40 rotations/minute after 180 seconds. As the animals, 5 or 6-week-old male ddY mice (Japan SLC, Inc.) were used. On the day on which the test was performed, the mice were trained under the above-described measurement conditions, and mice that were able to ride on the rod for 1 minute or longer with good reproducibility were selected and subjected to the test.
# As the control, only the medium was orally administered. After a lapse of 25 minutes from the oral administration of each compound, the mice were subjected to the rotarod performance test. Five or six mice were used for each compound group. For each compound, the time until the mice fell from the rotarod was measured.
# [2] = test system: AMPA receptor; experiment: AMPA-induced intraneuronal calcium entry-suppressing action (primary culture of embryonic rat cerebral cortex neurons, Fura 2-AM); assay type: cell-based; conditions: AMPA stimulation, intracellular calcium increase, read-out: IC50 for AMPA inhibition
# From the text: The present inventors conducted the following tests, in order to confirm the effects of the compounds of the present invention. With regard to the AMPA receptor inhibitory action of the compounds, AMPA-induced intraneuronal calcium entry-suppressing action was examined using a primary culture system of embryonic rat cerebral cortex neurons. With regard to the anticonvulsant action of the compounds, 6 Hz (44 mA) stimulation-induced convulsions known as a treatment-resistant convulsion model were used. AMPA inhibitor-induced central nervous system depressant action such as loss of coordination was evaluated using a rotarod performance test.
# AMPA-Induced Intraneuronal Calcium Entry-Suppressing Action
# <Culture conditions> Whole fetuses were removed from the uteri of Wistar rats at embryonic day 18 (Charles River Japan) anesthetized with isoflurane. Whole brains were removed from the whole fetuses, and the cerebral cortex was separated in Leibovitz's L-15 medium or Hanks balanced salt solution containing 20% fetal bovine serum. The resulting material was treated with trypsin/DNase solution at 37° C. for 45 to 60 minutes. After the serum was added to stop the trypsin reaction, the resulting material was centrifuged at 1200 to 1500 rpm for 3 to 5 minutes. After the supernatant was removed, Neurobasal medium (containing 2% B-27 supplement and the like; hereinafter “Neurobasal medium”) was added, and the cells were uniformly dispersed by gently pipetting. The cell suspension was slightly stirred, and then filtered through a nylon mesh filter. Viable cells were counted using a hemocytometer, and diluted with Neurobasal medium to 8 to 10×10^5 cells/mL. The cells were seeded into 96 well plates at 100 μL per well and cultured in a CO2 incubator (5% CO2, 37° C.). The medium was replaced after 24 hours, and neurons cultured for 7 to 21 days were used.
# On the day of the assay, the medium was removed and replaced with a calcium measurement solution containing 5 to 10 μmol/L of Fura 2-AM (140 mmol/L sodium chloride, 5 mmol/L potassium chloride, 2 mmol/L magnesium chloride, 3 mmol/L calcium chloride, 24 mmol/L D(+)-glucose, 10 mmol/L HEPES, 1 μmol/L MK-801, pH 7.4), and the cells were treated in a CO2 incubator (5% CO2, 37° C.) for 1 to 2 hours. The calcium measurement solution containing the Fura-2 AM solution was subsequently removed, and the neurons in each well were washed twice with the calcium measurement solution for each well, and then 50 μL of the calcium measurement solution was added to each well. Subsequently, 50 μL of a test compound or medium prepared at a concentration 3-fold higher than the final concentration was added, and the cells were pre-treated for about 15 minutes. The plates were subsequently placed on the Fluorescence Drug Screening System 6000 (Hamamatsu Photonics K.K.). The cells were stimulated by adding to each well 50 μL of an AMPA stimulating solution prepared to 3.3 μmol/L with the calcium measurement solution. Changes in calcium concentration were measured as the changes in fluorescence intensity at excitation wavelengths of 340 nm and 380 nm (measurement wavelength: 540 nm). The rate of change of the intracellular calcium concentration was calculated according to the following equation: Rate of increase of the intracellular calcium concentration (% control)=(Tpost−Tpre)/(Cpost−Cpre)×100
# wherein Tpost: the proportion of fluorescence of sample wells after stimulation; Tpro: the proportion of fluorescence of sample wells before stimulation; Cpost: the proportion of fluorescence of control wells after stimulation; and Cpre: the proportion of fluorescence of control wells before stimulation.
# The IC50 value of the test compound for AMPA inhibition was determined from the rates of increase of the intracellular calcium concentration at various concentrations.
# [3] = test system: male ddY mice; experiment: Rotarod performance test-1; assay type: in vivo; conditions: oral, 25 minutes after administration, dose at which time of fall is reduced to 50% of medium control
# Description: (§2) With regard to the AMPA receptor inhibitory action of the compounds, AMPA-induced intraneuronal calcium entry-suppressing action was examined using a primary culture system of embryonic rat cerebral cortex neurons. […] AMPA inhibitor-induced central nervous system depressant action such as loss of coordination was evaluated using a rotarod performance test.
# Rotarod Performance Test-1
# as §1
# Each of the compounds was dissolved in a medium (a solution prepared by adding DMSO to a 0.5% methylcellulose solution to a final concentration of 10%. As required, 0.5 to 5% of 1 mol/L hydrochloric acid and 5% Cremophor™ were added), and then orally administered to the mice in optimum four doses between 0.5 to 10 mg/kg. As the control, only the medium was orally administered. After a lapse of 25 minutes from the oral administration of each compound, the mice were subjected to the rotarod performance test. Five to twenty-five mice were used for each compound group.
# [4] = test system: male ddY mice; experiment: Murine 6 Hz convulsion models (6 Hz, 44 mA corneal stimulation); assay type: in vivo; conditions: for ED50: Mus musculus, 25 min; for Therapeutic Index: TD50/ED50 (rotarod test-1 / 6 Hz convulsion model)
# Description: as §2
# Immediately after the rotarod performance test-1 was completed, the cornea was stimulated by passing an electrical current (6 Hz, 44 mA, 0.2-millisecond pulse, for 3 seconds) from a copper electrode moistened with physiological saline, and the presence or absence of the development of a seizure was observed. The seizure was determined by the development of akinesia, jaw and forelimb clonus, whisker tremors, and Straub tail.
# Further, for the purpose of evaluating the safety margin of each of the compounds of the present invention, the therapeutic index (TD50/ED50) was calculated by comparing the seizure inhibitory action (ED50) in the 6 Hz convulsion models and the neurotoxic action (TD50) in the rotarod performance test-1.
# [5] = mice, 6 Hz 44 mA stimulation-induced seizure, oral, after rotarod test-1 (25 minutes after administration), read-out: ED50
smiles,measurement,setting,value
"N#Cc1ccccc1-n1nc2c(c(-c3cccnc3)c1=O)COc1ccccc1-2 [Control Compound, 2-(3-oxo-4-(pyridin-3-yl)-3,5-dihydro-2H-chromeno[4,3-c]pyridazin-2-yl)benzonitrile, reference compound]",Time of Fall,[1]; Table 3,12.2 s
same,Ratio Relative to the Control Compound,[1]; Table 3,1.0
same,Time of Fall,[1]; Table 4,14.3 s
same,Ratio Relative to the Control Compound,[1]; Table 4,1.0
same,IC50,[2],20 nM
same,TD50,[3],"2.73 mg/kg, p.o."
same,ED50,[4]; po,3.96 mg/kg
same,Therapeutic Index,[4]; mice,0.69
"Cc1ncc(-n2c3c(cc(-c4cccc(F)c4C#N)c2=O)-c2ncccc2OC3)cn1 [Example 21, 2-fluoro-6-(7-(2-methylpyrimidin-5-yl)-8-oxo-7,8-dihydro-6H-pyrano[3,2-b:5,4-b′]dipyridin-9-yl)benzonitrile]",Time of Fall,[1]; Table 4,118.7 s
same,Ratio Relative to the Control Compound,[1]; Table 4,8.3
same,IC50,[2],44.3 nM
same,TD50,[3],"5.30 mg/kg, p.o."
same,ED50,[4]; [5],2.5 mg/kg
same,Therapeutic Index,[4]; mice,2.12
"O=c1c(-c2c(F)cccc2F)cc2c(n1-c1cccnc1)COc1cccnc1-2 [Referential Example 1, 9-(2,6-difluorophenyl)-7-(pyridin-3-yl)-6H-pyrano[3,2-b:5,4-b′]dipyridin-8(7H)-one]",Time of Fall,[1]; Table 3,110.7 s
same,Ratio Relative to the Control Compound,[1]; Table 3,9.1
same,IC50,[2],44.1 nM
same,TD50,[3],"5.16 mg/kg, p.o."
same,ED50,[4]; [5],1.41 mg/kg
same,Therapeutic Index,[4]; mice,3.66
"N#Cc1c(F)cccc1-c1cc2c(n(-c3cncnc3)c1=O)COc1cccnc1-2 [Example 18, 2-fluoro-6-(8-oxo-7-(pyrimidin-5-yl)-7,8-dihydro-6H-pyrano[3,2-b:5,4-b′]dipyridin-9-yl)benzonitrile]",Time of Fall,[1]; Table 4,102.2 s
same,Ratio Relative to the Control Compound,[1]; Table 4,7.1
same,IC50,[2],29 nM
same,TD50,[3],"4.03 mg/kg, p.o."
same,ED50,[4]; po,2 mg/kg
same,Therapeutic Index,[4]; mice,2.02
"O=c1c(-c2ccccc2Cl)cc2c(n1-c1cccnc1)COc1cccnc1-2 [Example 1, 9-(2-chlorophenyl)-7-(pyridin-3-yl)-6H-pyrano[3,2-b:5,4-b′]dipyridin-8(7H)-one]",Time of Fall,[1]; Table 3,56.3 s
same,Ratio Relative to the Control Compound,[1]; Table 3,4.6
same,IC50,[2],33.5 nM
same,TD50,[3],"3.09 mg/kg, p.o."
same,ED50,[4]; po,2.08 mg/kg
same,Therapeutic Index,[4]; mice,1.49
"N#Cc1ncccc1-c1cc2c(n(-c3ccccc3F)c1=O)COc1cccnc1-2 [Example 12, 3-(7-(2-fluorophenyl)-8-oxo-7,8-dihydro-6H-pyrano[3,2-b:5,4-b′]dipyridin-9-yl)picolinonitrile]",Time of Fall,[1]; Table 3,80.5 s
same,Ratio Relative to the Control Compound,[1]; Table 3,6.6
same,IC50,[2],33 nM
same,TD50,[3],"3.06 mg/kg, p.o."
same,ED50,[4]; po,1.66 mg/kg
same,Therapeutic Index,[4]; mice,1.84
"N#Cc1c(F)cccc1-c1cc2c(n(-c3cccnc3)c1=O)COc1cccc(F)c1-2 [Example 16, 2-fluoro-6-(10-fluoro-3-oxo-4-(pyridin-3-yl)-4,5-dihydro-3H-chromeno[3,4-b]pyridin-2-yl)benzonitrile]",Time of Fall,[1]; Table 4,92.8 s
same,Ratio Relative to the Control Compound,[1]; Table 4,6.5
same,IC50,[2],< 8 nM
same,TD50,[3],"1.73 mg/kg, p.o."
same,ED50,[4]; po,1.05 mg/kg
same,Therapeutic Index,[4]; mice,1.65
"Cc1ccc(-n2c3c(cc(-c4cccc(F)c4Cl)c2=O)-c2ncccc2OC3)cn1 [Example 4, 9-(2-chloro-3-fluorophenyl)-7-(6-methylpyridin-3-yl)-6H-pyrano[3,2-b:5,4-b′]dipyridin-8(7H)-one]",Time of Fall,[1]; Table 3,73.2 s
same,Ratio Relative to the Control Compound,[1]; Table 3,6.0
same,IC50,[2],28.3 nM
same,TD50,[3],"3.90 mg/kg, p.o."
same,ED50,[4]; po,2.33 mg/kg
same,Therapeutic Index,[4]; mice,1.67
"COc1ncc(-n2c3c(cc(-c4cccc(F)c4C#N)c2=O)-c2ncccc2OC3)cn1 [Example 5, 2-fluoro-6-(7-(2-methoxypyrimidin-5-yl)-8-oxo-7,8-dihydro-6H-pyrano[3,2-b:5,4-b′]dipyridin-9-yl)benzonitrile]",Time of Fall,[1]; Table 4,108.7 s
same,Ratio Relative to the Control Compound,[1]; Table 4,7.6
same,IC50,[2],31.8 nM
same,TD50,[3],"6.53 mg/kg, p.o."
same,ED50,[4]; [5],3.23 mg/kg
same,Therapeutic Index,[4]; mice,2.02
"N#Cc1c(F)cccc1-c1cc2c(n(-c3cccnc3)c1=O)COc1cc(F)cnc1-2 [Example 14, 2-fluoro-6-(3-fluoro-8-oxo-7-(pyridin-3-yl)-7,8-dihydro-6H-pyrano[3,2-b:5,4-b′]dipyridin-9-yl)benzonitrile]",Time of Fall,[1]; Table 4,139.2 s
same,Ratio Relative to the Control Compound,[1]; Table 4,9.7
same,IC50,[2],19.4 nM
same,TD50,[3],"4.76 mg/kg, p.o."
same,ED50,[4]; po,2.09 mg/kg
same,Therapeutic Index,[4]; mice,2.27
"N#Cc1ccccc1-c1cc2c(n(-c3ccc(F)cc3)c1=O)COc1cccnc1-2 [Example 10, 2-(7-(4-fluorophenyl)-8-oxo-7,8-dihydro-6H-pyrano[3,2-b:5,4-b′]dipyridin-9-yl)benzonitrile]",Time of Fall,[1]; Table 3,84.2 s
same,Ratio Relative to the Control Compound,[1]; Table 3,6.9
same,IC50,[2],18.8 nM
same,TD50,[3],"3.37 mg/kg, p.o."
same,ED50,[4]; po,2.08 mg/kg
same,Therapeutic Index,[4]; mice,1.62
"Cc1ccc(-n2c3c(cc(-c4cccc(F)c4C#N)c2=O)-c2ncccc2OC3)cn1 [Example 3, 2-fluoro-6-(7-(6-methylpyridin-3-yl)-8-oxo-7,8-dihydro-6H-pyrano[3,2-b:5,4-b′]dipyridin-9-yl)benzonitrile]",Time of Fall,[1]; Table 3,124.7 s
same,Ratio Relative to the Control Compound,[1]; Table 3,10.2
same,IC50,[2],10.4 nM
same,TD50,[3],"2.47 mg/kg, p.o."
same,ED50,[4]; po,1.21 mg/kg
same,Therapeutic Index,[4]; mice,2.04
"N#Cc1c(F)cccc1-c1cc2c(n(-c3cncc(Cl)c3)c1=O)COc1cccnc1-2 [Example 20, 2-(7-(5-chloropyridin-3-yl)-8-oxo-7,8-dihydro-6H-pyrano[3,2-b:5,4-b′]dipyridin-9-yl)-6-fluorobenzonitrile]",Time of Fall,[1]; Table 4,71.3 s
same,Ratio Relative to the Control Compound,[1]; Table 4,5.0
same,IC50,[2],8.26 nM
same,TD50,[3],"4.74 mg/kg, p.o."
same,ED50,[4]; po,2.47 mg/kg
same,Therapeutic Index,[4]; mice,1.91

# Reference: patent US9738656B2, “Pyranodipyridine compound” (Eisai R&D Management Co., Ltd., priority 2015, dated 2017)
